Measured values as given in ChEMBL document CHEMBL4706512, “Design, synthesis and antitumor activity of novel thiophene-pyrimidine derivatives as EGFR inhibitors overcoming T790M and L858R/T790M mutations” (Eur J Med Chem, 2020).

Key:
[1] = test system: MCF7; experiment: Antiproliferative activity against human MCF7 cells assessed as inhibition of cell proliferation measured after 72 hrs by MTT assay; format: functional, cell-based; settings: MCF7, 72 h
[2] = test system: A-431; experiment: Antiproliferative activity against human A-431 cells assessed as inhibition of cell proliferation measured after 72 hrs by MTT assay; format: functional, cell-based; settings: A-431, 72 h
[3] = test system: HeLa; experiment: Antiproliferative activity against human HeLa cells assessed as inhibition of cell proliferation measured after 72 hrs by MTT assay; format: functional, cell-based
[4] = test system: A549; experiment: Antiproliferative activity against human A549 cells assessed as inhibition of cell proliferation measured after 72 hrs by MTT assay; format: functional, cell-based; settings: A549, 72 h
[5] = Inhibition of EGFR T790M mutant (unknown origin) using FAM-labelled peptide as substrate incubated for 10 mins in presence of ATP measured by mobility shift assay; set-up: species or system Homo sapiens
[6] = test system: NCI-H1975; experiment: Antiproliferative activity against human NCI-H1975 cells harboring EGFR T790M/L858R double mutant assessed as inhibition of cell viability at 1 uM measured after 72 hrs by MTT assay; format: functional
[7] = species: Homo sapiens; experiment: Inhibition of EGFR T790M mutant (unknown origin) using FAM-labelled peptide as substrate at 1 uM incubated for 10 mins in presence of ATP measured by mobility shift assay
[8] = test system: NCI-H1975; experiment: Antiproliferative activity against human NCI-H1975 cells harboring EGFR T790M/L858R double mutant assessed as inhibition of cell viability at 10 uM measured after 72 hrs by MTT assay; format: functional
[9] = target: T1, Epidermal growth factor receptor (Homo sapiens, UniProt P00533); experiment: Inhibition of wild type EGFR (unknown origin) using FAM-labelled peptide as substrate incubated for 10 mins in presence of ATP measured by mobility shift assay
T1 sequence (P00533 whole entry): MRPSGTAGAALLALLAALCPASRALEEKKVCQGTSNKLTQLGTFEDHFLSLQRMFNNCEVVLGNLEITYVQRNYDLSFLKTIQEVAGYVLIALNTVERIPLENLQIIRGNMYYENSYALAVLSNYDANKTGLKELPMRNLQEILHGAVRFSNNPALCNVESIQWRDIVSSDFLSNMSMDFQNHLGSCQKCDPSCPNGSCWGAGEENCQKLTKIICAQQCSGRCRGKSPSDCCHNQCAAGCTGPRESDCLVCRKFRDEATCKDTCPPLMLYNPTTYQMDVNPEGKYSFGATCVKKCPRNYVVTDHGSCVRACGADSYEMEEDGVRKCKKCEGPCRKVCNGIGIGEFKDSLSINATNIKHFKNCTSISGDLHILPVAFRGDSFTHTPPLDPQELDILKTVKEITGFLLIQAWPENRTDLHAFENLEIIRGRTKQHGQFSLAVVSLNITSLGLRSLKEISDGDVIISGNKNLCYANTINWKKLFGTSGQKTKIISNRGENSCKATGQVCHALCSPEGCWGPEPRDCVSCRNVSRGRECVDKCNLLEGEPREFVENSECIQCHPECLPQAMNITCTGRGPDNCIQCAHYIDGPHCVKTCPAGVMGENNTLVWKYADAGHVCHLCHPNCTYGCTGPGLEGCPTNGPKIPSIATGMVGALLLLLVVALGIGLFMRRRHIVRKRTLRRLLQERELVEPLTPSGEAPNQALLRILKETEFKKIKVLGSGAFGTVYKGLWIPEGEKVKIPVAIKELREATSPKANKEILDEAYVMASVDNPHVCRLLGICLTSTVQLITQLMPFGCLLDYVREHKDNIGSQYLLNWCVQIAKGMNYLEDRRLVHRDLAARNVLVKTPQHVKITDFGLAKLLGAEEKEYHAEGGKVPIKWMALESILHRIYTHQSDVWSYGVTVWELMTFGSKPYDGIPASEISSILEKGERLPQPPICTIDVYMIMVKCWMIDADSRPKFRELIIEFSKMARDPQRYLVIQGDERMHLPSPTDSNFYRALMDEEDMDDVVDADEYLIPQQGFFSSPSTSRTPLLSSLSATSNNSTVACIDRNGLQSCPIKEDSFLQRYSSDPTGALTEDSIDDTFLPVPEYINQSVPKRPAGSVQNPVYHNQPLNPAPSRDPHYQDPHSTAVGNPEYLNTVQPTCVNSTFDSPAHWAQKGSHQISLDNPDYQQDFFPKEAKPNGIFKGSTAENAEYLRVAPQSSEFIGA

[10] = test system: L02; experiment: Cytotoxicity against human L02 cells assessed as inhibition of cell proliferation measured after 72 hrs by MTT assay; format: cell-based; settings: L02, 72 h
[11] = target: T1, Epidermal growth factor receptor; experiment: Inhibition of wild type EGFR (unknown origin) using FAM-labelled peptide as substrate at 1 uM incubated for 10 mins in presence of ATP measured by mobility shift assay
[12] = test system: NCI-H1975; experiment: Antiproliferative activity against human NCI-H1975 cells harboring EGFR T790M/L858R double mutant assessed as inhibition of cell viability measured after 72 hrs by MTT assay; format: functional, cell-based; settings: NCI-H1975, 72 h
[13] = species: Homo sapiens; experiment: Selectivity ratio of IC50 for wild type EGFR (unknown origin) to IC50 for EGFR T790M mutant (unknown origin) measured by mobility shift assay
[14] = target: Hepatocyte growth factor receptor (Homo sapiens) (UniProt P08581); experiment: Inhibition of c-MET (unknown origin) using FAM-labelled peptide as substrate at 1 uM incubated for 10 mins in presence of ATP measured by mobility shift assay
Chain of Hepatocyte growth factor receptor (Homo sapiens) (P08581 whole entry): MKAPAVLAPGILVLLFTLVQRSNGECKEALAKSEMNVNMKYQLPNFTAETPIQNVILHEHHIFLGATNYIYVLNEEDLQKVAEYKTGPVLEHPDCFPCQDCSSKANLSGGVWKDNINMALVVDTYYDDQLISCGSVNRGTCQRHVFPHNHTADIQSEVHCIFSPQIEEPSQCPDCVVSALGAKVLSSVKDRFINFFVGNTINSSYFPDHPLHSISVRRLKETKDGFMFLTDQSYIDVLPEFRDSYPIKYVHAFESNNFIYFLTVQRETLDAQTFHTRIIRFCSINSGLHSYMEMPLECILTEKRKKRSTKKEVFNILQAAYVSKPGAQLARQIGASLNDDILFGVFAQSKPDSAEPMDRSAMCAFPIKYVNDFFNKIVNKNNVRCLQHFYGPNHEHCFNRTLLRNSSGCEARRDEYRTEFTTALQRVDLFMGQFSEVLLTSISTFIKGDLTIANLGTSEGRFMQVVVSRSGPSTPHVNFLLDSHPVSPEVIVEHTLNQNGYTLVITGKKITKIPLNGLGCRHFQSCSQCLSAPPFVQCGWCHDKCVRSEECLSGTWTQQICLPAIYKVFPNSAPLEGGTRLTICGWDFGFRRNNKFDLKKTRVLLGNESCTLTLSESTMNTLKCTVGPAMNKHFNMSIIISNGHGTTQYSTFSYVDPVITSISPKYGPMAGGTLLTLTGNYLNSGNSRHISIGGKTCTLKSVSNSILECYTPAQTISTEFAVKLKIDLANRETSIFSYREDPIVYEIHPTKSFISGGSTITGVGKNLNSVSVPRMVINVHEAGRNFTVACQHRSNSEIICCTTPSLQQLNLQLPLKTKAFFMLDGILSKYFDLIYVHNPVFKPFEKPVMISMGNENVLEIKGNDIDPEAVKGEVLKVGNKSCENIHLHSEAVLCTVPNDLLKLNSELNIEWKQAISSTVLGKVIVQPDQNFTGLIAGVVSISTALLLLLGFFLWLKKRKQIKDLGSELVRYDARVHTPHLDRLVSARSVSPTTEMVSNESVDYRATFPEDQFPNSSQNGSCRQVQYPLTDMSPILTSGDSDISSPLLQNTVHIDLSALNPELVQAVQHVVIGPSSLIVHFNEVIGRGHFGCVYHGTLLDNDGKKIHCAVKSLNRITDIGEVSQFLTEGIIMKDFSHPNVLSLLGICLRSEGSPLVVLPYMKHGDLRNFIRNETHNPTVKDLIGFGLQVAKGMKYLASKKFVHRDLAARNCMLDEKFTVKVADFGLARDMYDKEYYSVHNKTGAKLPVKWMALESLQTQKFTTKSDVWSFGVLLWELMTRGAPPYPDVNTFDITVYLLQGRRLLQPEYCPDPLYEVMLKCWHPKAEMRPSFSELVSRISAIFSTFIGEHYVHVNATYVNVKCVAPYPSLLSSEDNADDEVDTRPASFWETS

[15] = species: Homo sapiens; experiment: Selectivity ratio of IC50 for wild type EGFR (unknown origin) to IC50 for EGFR T790M/L858R double mutant (unknown origin) measured by mobility shift assay
[16] = target: Vascular endothelial growth factor receptor 2 (Homo sapiens) (UniProt P35968); experiment: Inhibition of KDR (unknown origin) using FAM-labelled peptide as substrate at 1 uM incubated for 10 mins in presence of ATP measured by mobility shift assay
Chain of Vascular endothelial growth factor receptor 2 (Homo sapiens) (P35968 whole entry): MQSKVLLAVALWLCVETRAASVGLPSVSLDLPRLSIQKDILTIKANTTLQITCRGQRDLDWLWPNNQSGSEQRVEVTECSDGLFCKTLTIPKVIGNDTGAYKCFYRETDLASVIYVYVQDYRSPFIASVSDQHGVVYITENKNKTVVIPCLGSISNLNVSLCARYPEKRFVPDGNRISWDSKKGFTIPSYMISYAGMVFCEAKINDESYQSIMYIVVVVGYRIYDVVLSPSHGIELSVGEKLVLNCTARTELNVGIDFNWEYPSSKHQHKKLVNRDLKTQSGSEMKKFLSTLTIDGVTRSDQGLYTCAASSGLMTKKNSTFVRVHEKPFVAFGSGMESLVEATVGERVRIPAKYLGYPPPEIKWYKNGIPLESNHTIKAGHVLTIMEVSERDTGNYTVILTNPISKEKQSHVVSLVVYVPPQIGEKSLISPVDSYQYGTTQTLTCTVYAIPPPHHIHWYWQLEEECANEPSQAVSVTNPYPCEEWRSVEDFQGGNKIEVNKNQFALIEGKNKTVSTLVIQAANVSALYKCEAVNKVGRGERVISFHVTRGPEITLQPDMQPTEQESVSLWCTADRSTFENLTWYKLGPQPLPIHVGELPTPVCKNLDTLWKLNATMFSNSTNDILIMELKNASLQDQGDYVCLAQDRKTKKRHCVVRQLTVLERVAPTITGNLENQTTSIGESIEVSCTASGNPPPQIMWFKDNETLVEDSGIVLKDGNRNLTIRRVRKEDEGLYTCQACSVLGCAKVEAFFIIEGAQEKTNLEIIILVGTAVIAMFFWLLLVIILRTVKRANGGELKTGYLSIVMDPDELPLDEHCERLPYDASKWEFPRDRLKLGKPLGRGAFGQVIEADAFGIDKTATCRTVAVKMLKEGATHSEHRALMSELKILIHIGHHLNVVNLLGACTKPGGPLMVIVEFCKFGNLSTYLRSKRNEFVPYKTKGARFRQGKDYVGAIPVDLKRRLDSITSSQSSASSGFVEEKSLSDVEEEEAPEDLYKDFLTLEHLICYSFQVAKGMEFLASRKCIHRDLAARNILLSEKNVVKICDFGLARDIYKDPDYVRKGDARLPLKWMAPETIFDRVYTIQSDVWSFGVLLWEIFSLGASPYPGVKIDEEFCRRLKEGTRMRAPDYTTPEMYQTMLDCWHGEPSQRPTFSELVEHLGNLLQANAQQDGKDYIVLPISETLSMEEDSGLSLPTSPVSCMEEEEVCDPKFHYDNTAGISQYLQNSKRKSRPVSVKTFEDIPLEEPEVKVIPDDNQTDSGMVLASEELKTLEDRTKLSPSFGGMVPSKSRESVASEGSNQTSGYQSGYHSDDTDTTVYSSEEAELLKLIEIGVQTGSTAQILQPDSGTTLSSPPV

[17] = target: Serine/threonine-protein kinase mTOR (Homo sapiens) (UniProt P42345); experiment: Inhibition of mTOR (unknown origin) using FAM-labelled peptide as substrate at 1 uM incubated for 10 mins in presence of ATP measured by mobility shift assay
[18] = Inhibition of EGFR T790M/L858R double mutant (unknown origin) using FAM-labelled peptide as substrate incubated for 10 mins in presence of ATP measured by mobility shift assay; set-up: species or system Homo sapiens
[19] = species: Homo sapiens; experiment: Inhibition of PI3K (unknown origin) using FAM-labelled peptide as substrate at 1 uM incubated for 10 mins in presence of ATP measured by mobility shift assay
[20] = species: Homo sapiens; experiment: Inhibition of EGFR T790M/L858R double mutant (unknown origin) using FAM-labelled peptide as substrate at 1 uM incubated for 10 mins in presence of ATP measured by mobility shift assay
[21] = test system: A-431; experiment: Induction of apoptosis in human A-431 cells assessed as viable cells at 5 uM measured after 48 hrs by Annexin V-FITC staining based flow cytometry (reference value: 95.67%); format: functional; settings: read-out: Activity
[22] = test system: A-431; experiment: Induction of apoptosis in human A-431 cells assessed as necrotic cells at 5 uM measured after 48 hrs by Annexin V-FITC staining based flow cytometry (reference value: 0.21%); format: functional
[23] = test system: A-431; experiment: Induction of apoptosis in human A-431 cells assessed as early apoptotic cells at 5 uM measured after 48 hrs by Annexin V-FITC staining based flow cytometry (reference value: 2.1%); format: functional
[24] = test system: A-431; experiment: Induction of apoptosis in human A-431 cells assessed as late apoptotic cells at 5 uM measured after 48 hrs by Annexin V-FITC staining based flow cytometry (reference value: 2.02%); format: functional

SMILES | IC50 [1] [µM] | IC50 [2] [µM] | IC50 [3] [µM] | IC50 [4] [µM] | IC50 [10] [µM] | further results
C/C=C/C(=O)Nc1cccc(Oc2nc(Nc3ccc(OC)cc3)nc3ccsc23)c1 | > 50 | 11.8 | 45.1 | 13.7 | > 50 | –
CC(C)/C=C/C(=O)Nc1cccc(Oc2nc(Nc3cccc(C#N)c3)nc3ccsc23)c1 | > 50 | 24.1 | 36.5 | 19 | > 50 | –
CCC/C=C/C(=O)Nc1cccc(Oc2nc(Nc3cccc(C#N)c3)nc3ccsc23)c1 | 49.1 | 20.4 | 42.1 | 16.7 | > 50 | –
COc1ccc(Nc2nc(Oc3cccc(NC(=O)C=C(C)C)c3)c3sccc3n2)cc1 | 46.1 | 17.6 | 28.8 | 18.1 | 48.9 | –
C=C(F)C(=O)Nc1cccc(Oc2nc(Nc3ccn(C)n3)nc3ccsc23)c1 | > 50 | > 50 | > 50 | > 50 | – | –
C/C=C/C(=O)Nc1cccc(Oc2nc(Nc3ccn(C)n3)nc3ccsc23)c1 | > 50 | 33.3 | 43.5 | 29.5 | – | –
C=CC(=O)Nc1cccc(Oc2nc(Nc3ccc(OC)cc3)nc3ccsc23)c1 | 16 | 9.3 | 26.1 | 8.61 | > 50 | IC50 [12]: 0.207 µM; inhibition at 1 µM [6]: 59.1%; inhibition at 10 µM [8]: 83.8%
CC(C)/C=C/C(=O)Nc1cccc(Oc2nc(Nc3ccn(C)n3)nc3ccsc23)c1 | > 50 | 46.1 | 48.8 | 29.9 | – | –
CC/C=C/C(=O)Nc1cccc(Oc2nc(Nc3ccn(C)n3)nc3ccsc23)c1 | > 50 | 36.2 | 49.4 | 25.6 | – | –
C=C(C)C(=O)Nc1cccc(Oc2nc(Nc3ccn(C)n3)nc3ccsc23)c1 | > 50 | > 50 | > 50 | > 50 | – | –
CC/C=C/C(=O)Nc1cccc(Oc2nc(Nc3cccc(C#N)c3)nc3ccsc23)c1 | > 50 | 36.2 | 69.4 | 14.9 | > 50 | –
COc1cccc(Nc2nc(Oc3cccc(NC(=O)/C=C/C(C)C)c3)c3sccc3n2)c1 | 43.9 | 23.4 | 27 | 37.1 | – | –
C=CC(=O)Nc1cc(Nc2nccc(-c3cn(C)c4ccccc34)n2)c(OC)cc1N(C)CCN(C)C [OSIMERTINIB] | 3.67 | […] | 1.83 | 0.67 | > 50 | –
CCC/C=C/C(=O)Nc1cccc(Oc2nc(Nc3ccc(OC)cc3)nc3ccsc23)c1 | 35 | 4.22 | 31.4 | 5.21 | > 50 | IC50 [12]: 2.14 µM; IC50 [5]: > 1 µM; inhibition at 1 µM [6]: 3.25%; inhibition [7]: 21.7%; inhibition at 10 µM [8]: 94.3%; IC50 [9]: > 1 µM; inhibition [11]: 7.4%
C=CC(=O)Nc1cccc(Oc2nc(Nc3ccc(OC)nc3)nc3ccsc23)c1 | > 50 | 27.8 | 47.1 | 20.4 | > 50 | –
CC(C)=CC(=O)Nc1cccc(Oc2nc(Nc3cccc(C#N)c3)nc3ccsc23)c1 | 41.1 | 28.3 | 19.8 | 16.9 | > 50 | –

The next lines start with results.

IC50 [1] [µM] | IC50 [2] [µM] | IC50 [3] [µM] | IC50 [4] [µM] | SMILES | IC50 [10] [µM] | further results
> 50 | 25.2 | 45.1 | 37.9 | COc1ccc(Nc2nc(Oc3cccc(NC(=O)/C=C/C(C)C)c3)c3sccc3n2)cc1 | – | –
5.02 | 8.09 | 7.73 | 5.56 | CCC/C=C/C(=O)Nc1cccc(Oc2nc(Nc3cccc(OC)c3)nc3ccsc23)c1 | > 50 | IC50 [5]: > 1 µM; inhibition at 1 µM [6]: -0.18%; inhibition [7]: 24.5%; inhibition at 10 µM [8]: 14.6%; IC50 [9]: > 1 µM; inhibition [11]: 4%
> 50 | 30.3 | > 50 | 21.5 | CCC/C=C/C(=O)Nc1cccc(Oc2nc(Nc3ccc(OC)nc3)nc3ccsc23)c1 | 41.6 | –
19 | 4.79 | 16.4 | 4.34 | C=CC(=O)Nc1cccc(Oc2nc(Nc3cccc(OC)c3)nc3ccsc23)c1 | 30.3 | IC50 [12]: 0.418 µM; Selectivity ratio [13]: > 13; inhibition [14]: 0.5%; Selectivity ratio [15]: > 65; inhibition [16]: -0.2%; IC50 [5]: 0.0766 µM; inhibition [17]: 9.7%; inhibition at 1 µM [6]: 50.6%; inhibition [7]: 94.8%; inhibition at 10 µM [8]: 86.8%; IC50 [9]: > 1 µM; IC50 [18]: 0.0153 µM; inhibition [19]: 31.6%; inhibition [20]: 104%; inhibition [11]: 24%
14.6 | 13.1 | 20.1 | 10.5 | C/C=C/C(=O)Nc1cccc(Oc2nc(Nc3cccc(OC)c3)nc3ccsc23)c1 | 46 | –
33.1 | 20.1 | 23.6 | 11.3 | C/C=C/C(=O)Nc1cccc(Oc2nc(Nc3cccc(C#N)c3)nc3ccsc23)c1 | 47.9 | –
43.9 | 38.9 | 39.6 | 31.9 | CC(C)=CC(=O)Nc1cccc(Oc2nc(Nc3ccn(C)n3)nc3ccsc23)c1 | – | –
37.6 | 13.9 | 17.3 | 26.5 | C=CC(=O)Nc1cccc(Oc2nc(Nc3ccn(C)n3)nc3ccsc23)c1 | – | –
6.9 | 5.29 | 9.27 | 4.29 | C=CC(=O)Nc1cccc(Oc2nc(Nc3ccc(N4CCN(C)CC4)cc3)nc3ccsc23)c1 [OLMUTINIB] | 25.5 | IC50 [12]: 0.52 µM; viability at 5 µM [21]: 78.7%; IC50 [5]: 0.048 µM; inhibition at 1 µM [6]: 6.08%; Activity [22]: 1.37%; inhibition [7]: 98.1%; Activity [23]: 5.17%; inhibition at 10 µM [8]: 74.6%; Activity [24]: 14.78%; IC50 [18]: 0.0127 µM
43.4 | 29.2 | 29.4 | 19.6 | CC/C=C/C(=O)Nc1cccc(Oc2nc(Nc3cccc(OC)c3)nc3ccsc23)c1 | > 50 | –
> 50 | 15.1 | 36.1 | 16.1 | CC/C=C/C(=O)Nc1cccc(Oc2nc(Nc3ccc(OC)cc3)nc3ccsc23)c1 | > 50 | –
39.1 | 23.4 | 32.2 | 26.3 | CCC/C=C/C(=O)Nc1cccc(Oc2nc(Nc3ccn(C)n3)nc3ccsc23)c1 | – | –
> 100 | > 50 | > 100 | 40.1 | COc1ccc(Nc2nc(Oc3cccc(NC(=O)C=C(C)C)c3)c3sccc3n2)cn1 | 36.9 | –
> 50 | > 50 | > 50 | > 50 | COc1ccc(Nc2nc(Oc3cccc(NC(=O)/C=C/C(C)C)c3)c3sccc3n2)cn1 | – | –
35.8 | 25.8 | 26.1 | 27.7 | COc1cccc(Nc2nc(Oc3cccc(NC(=O)C=C(C)C)c3)c3sccc3n2)c1 | – | –
> 50 | 37.2 | > 50 | 31.9 | C/C=C/C(=O)Nc1cccc(Oc2nc(Nc3ccc(OC)nc3)nc3ccsc23)c1 | > 50 | –
> 50 | 26.2 | 49.9 | 25.8 | CC/C=C/C(=O)Nc1cccc(Oc2nc(Nc3ccc(OC)nc3)nc3ccsc23)c1 | > 50 | –
